Experiment: xn = mol fraction of the nth substance listed
Settings: 101 kPa

CCCC[n+]1ccn(C)c1.CS(=O)(=O)[O-] + O
viscosity (343.15 K, x2 = 0.7015): 6.27 mPa·s
electrical conductivity (343.15 K, x2 = 0.704): 2.68 S/m
viscosity (343.15 K, x2 = 0.7495): 4.95 mPa·s
electrical conductivity (343.15 K, x2 = 0.785): 4.03 S/m
electrical conductivity (343.15 K, x2 = 0.796): 4.19 S/m
viscosity (343.15 K, x2 = 0.8016): 3.73 mPa·s
electrical conductivity (343.15 K, x2 = 0.861): 7.01 S/m
viscosity (343.15 K, x2 = 0.9004): 1.902 mPa·s
viscosity (343.15 K, x2 = 0.9254): 1.45 mPa·s
electrical conductivity (343.15 K, x2 = 0.929): 9.33 S/m
viscosity (343.15 K, x2 = 0.9503): 1.05 mPa·s
electrical conductivity (343.15 K, x2 = 0.951): 9.42 S/m
electrical conductivity (343.15 K, x2 = 0.968): 8.73 S/m
viscosity (343.15 K, x2 = 0.975): 0.672 mPa·s
electrical conductivity (344.15 K, x1 = 0.004): 2.52 S/m
electrical conductivity (344.15 K, x1 = 0.008): 4.46 S/m
electrical conductivity (344.15 K, x1 = 0.019): 7.24 S/m
electrical conductivity (344.15 K, x2 = 0.785): 4.1 S/m
electrical conductivity (344.15 K, x2 = 0.796): 4.32 S/m
electrical conductivity (344.15 K, x2 = 0.861): 7.13 S/m
electrical conductivity (344.15 K, x2 = 0.892): 8.05 S/m
electrical conductivity (344.15 K, x2 = 0.951): 9.81 S/m
electrical conductivity (345.15 K, x1 = 0.008): 4.43 S/m
electrical conductivity (345.15 K, x1 = 0.019): 7.32 S/m
electrical conductivity (345.15 K, x2 = 0.704): 2.81 S/m
electrical conductivity (345.15 K, x2 = 0.861): 7.27 S/m
electrical conductivity (345.15 K, x2 = 0.892): 8.29 S/m
electrical conductivity (345.15 K, x2 = 0.929): 9.54 S/m
electrical conductivity (346.15 K, x1 = 0.004): 2.55 S/m
electrical conductivity (346.15 K, x1 = 0.019): 7.4 S/m
electrical conductivity (346.15 K, x2 = 0.785): 4.26 S/m
electrical conductivity (346.15 K, x2 = 0.861): 7.5 S/m
electrical conductivity (346.15 K, x2 = 0.892): 8.44 S/m
electrical conductivity (346.15 K, x2 = 0.929): 9.69 S/m
electrical conductivity (346.15 K, x2 = 0.968): 9.3 S/m
electrical conductivity (347.15 K, x1 = 0.004): 2.58 S/m
electrical conductivity (347.15 K, x1 = 0.008): 4.7 S/m
electrical conductivity (347.15 K, x1 = 0.019): 7.35 S/m
electrical conductivity (347.15 K, x2 = 0.704): 2.95 S/m
electrical conductivity (347.15 K, x2 = 0.785): 4.32 S/m
electrical conductivity (347.15 K, x2 = 0.929): 9.84 S/m
electrical conductivity (347.15 K, x2 = 0.951): 10.2 S/m
electrical conductivity (347.15 K, x2 = 0.968): 9.4 S/m
electrical conductivity (348.15 K, x1 = 0.008): 4.66 S/m
electrical conductivity (348.15 K, x1 = 0.019): 7.57 S/m
electrical conductivity (348.15 K, x2 = 0.704): 3.03 S/m
electrical conductivity (348.15 K, x2 = 0.785): 4.41 S/m
electrical conductivity (348.15 K, x2 = 0.796): 4.64 S/m
electrical conductivity (348.15 K, x2 = 0.861): 7.68 S/m
electrical conductivity (348.15 K, x2 = 0.929): 9.94 S/m
electrical conductivity (348.15 K, x2 = 0.951): 10.4 S/m
electrical conductivity (348.15 K, x2 = 0.968): 9.35 S/m
electrical conductivity (349.15 K, x1 = 0.004): 2.62 S/m
electrical conductivity (349.15 K, x1 = 0.008): 4.72 S/m
electrical conductivity (349.15 K, x1 = 0.019): 7.54 S/m
electrical conductivity (349.15 K, x2 = 0.704): 3.08 S/m
electrical conductivity (349.15 K, x2 = 0.785): 4.52 S/m
electrical conductivity (349.15 K, x2 = 0.892): 8.91 S/m
electrical conductivity (349.15 K, x2 = 0.929): 10.1 S/m
electrical conductivity (349.15 K, x2 = 0.968): 9.59 S/m
electrical conductivity (350.15 K, x1 = 0.004): 2.67 S/m
electrical conductivity (350.15 K, x1 = 0.008): 4.85 S/m
electrical conductivity (350.15 K, x2 = 0.704): 3.16 S/m
electrical conductivity (350.15 K, x2 = 0.785): 4.57 S/m
electrical conductivity (350.15 K, x2 = 0.796): 4.8 S/m
electrical conductivity (350.15 K, x2 = 0.861): 7.93 S/m
electrical conductivity (350.15 K, x2 = 0.892): 9.06 S/m
electrical conductivity (350.15 K, x2 = 0.929): 10.3 S/m
electrical conductivity (350.15 K, x2 = 0.951): 10.7 S/m
electrical conductivity (350.15 K, x2 = 0.968): 9.73 S/m
electrical conductivity (351.15 K, x1 = 0.004): 2.68 S/m
electrical conductivity (351.15 K, x1 = 0.008): 4.84 S/m
electrical conductivity (351.15 K, x1 = 0.019): 7.88 S/m
electrical conductivity (351.15 K, x2 = 0.704): 3.27 S/m
electrical conductivity (351.15 K, x2 = 0.785): 4.68 S/m
electrical conductivity (351.15 K, x2 = 0.796): 4.91 S/m
electrical conductivity (351.15 K, x2 = 0.861): 8.29 S/m
electrical conductivity (351.15 K, x2 = 0.892): 9.2 S/m
electrical conductivity (351.15 K, x2 = 0.929): 10.5 S/m
electrical conductivity (351.15 K, x2 = 0.951): 10.8 S/m
electrical conductivity (351.15 K, x2 = 0.968): 9.91 S/m
electrical conductivity (352.15 K, x1 = 0.004): 2.71 S/m
electrical conductivity (352.15 K, x1 = 0.008): 4.89 S/m
electrical conductivity (352.15 K, x2 = 0.704): 3.37 S/m
electrical conductivity (352.15 K, x2 = 0.785): 4.8 S/m
electrical conductivity (352.15 K, x2 = 0.796): 4.99 S/m
electrical conductivity (352.15 K, x2 = 0.861): 8.21 S/m
electrical conductivity (352.15 K, x2 = 0.892): 9.33 S/m
electrical conductivity (352.15 K, x2 = 0.929): 10.6 S/m
electrical conductivity (352.15 K, x2 = 0.968): 9.86 S/m
electrical conductivity (353.15 K, x1 = 0.008): 4.92 S/m
electrical conductivity (353.15 K, x1 = 0.019): 8.06 S/m
electrical conductivity (353.15 K, x2 = 0.892): 9.44 S/m
electrical conductivity (353.15 K, x2 = 0.929): 10.7 S/m
electrical conductivity (353.15 K, x2 = 0.968): 10.1 S/m
electrical conductivity (354.15 K, x1 = 0.004): 2.79 S/m
electrical conductivity (354.15 K, x1 = 0.008): 4.98 S/m
electrical conductivity (354.15 K, x1 = 0.019): 8.03 S/m
electrical conductivity (354.15 K, x2 = 0.704): 3.55 S/m
electrical conductivity (354.15 K, x2 = 0.785): 4.98 S/m
electrical conductivity (354.15 K, x2 = 0.796): 5.01 S/m
electrical conductivity (354.15 K, x2 = 0.892): 9.6 S/m
electrical conductivity (354.15 K, x2 = 0.929): 10.8 S/m
electrical conductivity (354.15 K, x2 = 0.951): 11.1 S/m
electrical conductivity (354.15 K, x2 = 0.968): 10.2 S/m
electrical conductivity (355.15 K, x1 = 0.008): 5.04 S/m
electrical conductivity (355.15 K, x1 = 0.019): 8.25 S/m
electrical conductivity (355.15 K, x2 = 0.785): 5.05 S/m
electrical conductivity (355.15 K, x2 = 0.796): 5.26 S/m
electrical conductivity (355.15 K, x2 = 0.861): 8.55 S/m
electrical conductivity (355.15 K, x2 = 0.892): 9.73 S/m
electrical conductivity (355.15 K, x2 = 0.929): 11 S/m
electrical conductivity (355.15 K, x2 = 0.951): 11.1 S/m
electrical conductivity (356.15 K, x1 = 0.008): 5.09 S/m
electrical conductivity (356.15 K, x1 = 0.019): 8.34 S/m
electrical conductivity (356.15 K, x2 = 0.704): 3.73 S/m
electrical conductivity (356.15 K, x2 = 0.785): 5.15 S/m
electrical conductivity (356.15 K, x2 = 0.796): 5.34 S/m
electrical conductivity (356.15 K, x2 = 0.861): 8.43 S/m
electrical conductivity (356.15 K, x2 = 0.892): 9.89 S/m
electrical conductivity (356.15 K, x2 = 0.929): 11.1 S/m
electrical conductivity (356.15 K, x2 = 0.951): 11.2 S/m
electrical conductivity (356.15 K, x2 = 0.968): 10.4 S/m
electrical conductivity (357.15 K, x1 = 0.008): 5.13 S/m
electrical conductivity (357.15 K, x1 = 0.019): 8.43 S/m
electrical conductivity (357.15 K, x2 = 0.704): 3.83 S/m
electrical conductivity (357.15 K, x2 = 0.785): 5.23 S/m
electrical conductivity (357.15 K, x2 = 0.796): 5.41 S/m
electrical conductivity (357.15 K, x2 = 0.861): 8.6 S/m
electrical conductivity (357.15 K, x2 = 0.892): 10 S/m
electrical conductivity (357.15 K, x2 = 0.968): 10.6 S/m
electrical conductivity (358.15 K, x1 = 0.004): 2.9 S/m
electrical conductivity (358.15 K, x1 = 0.008): 5.18 S/m
electrical conductivity (358.15 K, x1 = 0.019): 8.47 S/m
electrical conductivity (358.15 K, x2 = 0.704): 3.88 S/m
electrical conductivity (358.15 K, x2 = 0.785): 5.22 S/m
electrical conductivity (358.15 K, x2 = 0.796): 5.47 S/m
electrical conductivity (358.15 K, x2 = 0.861): 8.73 S/m
electrical conductivity (358.15 K, x2 = 0.929): 11.3 S/m
electrical conductivity (358.15 K, x2 = 0.951): 11.5 S/m
electrical conductivity (358.15 K, x2 = 0.968): 10.6 S/m

Reference: a compilation of properties of binary mixtures (doi:10.1016/j.molliq.2014.08.031)
